According to patent US9321764B2, “Dihydro-pyrrolopyridinone inhibitors” (AbbVie Inc., priority 2013, dated 2016):
Like-named read-outs stand apart in the source and are kept apart here.

Tests used:
[1] = system: breast cancer cell line MX-1; experiment: MX-1 cell line proliferation assay; type: cell-based; details: MX-1 cells, 3-day proliferation assay, Cell Titer Glo, read-out: Cellular proliferation EC50
Procedure: The impact of compounds of the Examples on cancer cell proliferation was determined using the breast cancer cell line MX-1 (ATCC) in a 3-day proliferation assay and the data are reported in Table 1. MX-1 cells were maintained in RPMI 1640 medium (Sigma) supplemented with 10% FBS at 37° C. and an atmosphere of 5% CO2. For compound testing, MX-1 cells were plated in 96-well black bottom plates at a density of 5000 cells/well in 90 μL of culture media and incubated at 37° overnight to allow cell adhesion and spreading. Compound dilution series were prepared in DMSO via a 3-fold serial dilution from 3 mM to 0.1 μM. The DMSO dilution series were then diluted 1:100 in phosphate buffered saline, and 10 μL of the resulted solution were added to the appropriate wells of the MX-1 cell plate. The final compound concentrations in the wells were 3, 1, 0.3, 0.1, 0.03, 0.01, 0.003, 0.001, 0.0003 and 0.0001 μM.
Luminescence readings from the Cell Titer Glo assay were normalized to the DMSO treated cells and analyzed using the GraphPad Prism software with sigmoidal curve fitting to obtain EC50s. The minimum significant ratio (MSR) was determined to evaluate assay reproducibility (Eastwood et al., (2006) J Biomol Screen, 11: 253-261).

BRD4 (BDI_K57-E168) = molecular target: T1, BRD4 (BDI_K57-E168) (Homo sapiens, UniProt O60885); experiment: TR-FRET bromodomain binding assay, first bromodomain of BRD4; details: His-tagged BD1, 100 nM Alexa647 probe; TR-FRET protocol A-E given per row
T1 construct: BD1: amino acids K57-E168; made in house
How it was run: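 Ki values come from IC50s (4-parameter logistic) corrected for probe Kd and concentration, normalised to no-compound and 1 μM unlabelled probe controls. Probe displacement by TR-FRET used 8 nM BD1 (K57-E168), 100 nM Alexa647 probe, 1 nM Eu-anti-His, 20 mM phosphate pH 6.0, 2% DMSO, 1 h, room temperature.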

BRD4 (BDII_E352-M457) = molecular target: T2, BRD4 (BDII_E352-M457) (Homo sapiens, UniProt O60885); experiment: TR-FRET bromodomain binding assay, second bromodomain of BRD4; details: His-tagged BD2, 30 nM Alexa647 probe; TR-FRET protocol A-E given per row
T2 construct: proliferation; Protocol; made in house
How it was run: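 His-tagged BRD4 BD2 ([…]) competed against an Alexa647-labelled BET-inhibitor probe in TR-FRET. Buffer was 20 mM sodium phosphate pH 6.0, 50 mM NaCl, 1 mM EDTA, 0.01% Triton X-100, 1 mM DTT, with method D DMSO series of 2.5 mM–800 nM (stock range). IC50 from 4-parameter fit, Ki from probe Kd and concentration.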

Row | Compound | EC50 ([1]; Homo sapiens, MX1, 72 h) [nM] | Ki (BRD4 (BDI_K57-E168)) [nM] | Ki (BRD4 (BDII_E352-M457)) [nM] | EC50 [1] [nM]
1 | CCS(=O)(=O)C(C)c1ccc(Oc2ccc(F)cc2F)c(-c2cn(C)c3c(=O)[nH]ccc23)c1 (single isomer, unassigned) [Example 56] | 36 | 13 | 18 | 
2 | CCS(=O)(=O)C(C)c1ccc(Oc2ccc(F)cc2F)c(-c2cn(C)c3c(=O)[nH]ccc23)c1 (single isomer, unassigned) [Example 57] |  | 14 | 37 | 66
3 | Cn1cc(-c2ccccc2Oc2ccccc2)c2cc[nH]c(=O)c21 [Example 1, 1-methyl-3-(2-phenoxyphenyl)-1,6-dihydro-7H-pyrrolo[2,3-c]pyridin-7-one] | 584 | 85 | 313 | 
4 | CC(C)S(=O)(=O)Nc1ccc(Oc2ccc(F)cc2F)c(-c2cn(C)c3c(=O)[nH]ccc23)c1 [Example 3, N-[4-(2,4-difluorophenoxy)-3-(1-methyl-7-oxo-6,7-dihydro-1H-pyrrolo[2,3-c]pyridin-3-yl)phenyl]propane-2-sulfonamide] | 161 | 26 | 43 | 
5 | CCS(=O)(=O)Nc1ccc(Oc2ccc(Cl)cc2)c(-c2cn(C)c3c(=O)[nH]ccc23)c1 [Example 5, N-[4-(4-chlorophenoxy)-3-(1-methyl-7-oxo-6,7-dihydro-1H-pyrrolo[2,3-c]pyridin-3-yl)phenyl]ethanesulfonamide] | 67 | 10 | 29 | 
6 | CCS(=O)(=O)Nc1ccc(O[C@H]2CC[C@H](OC)CC2)c(-c2cn(C)c3c(=O)[nH]ccc23)c1 [Example 6, N-{4-[(trans-4-methoxycyclohexyl)oxy]-3-(1-methyl-7-oxo-6,7-dihydro-1H-pyrrolo[2,3-c]pyridin-3-yl)phenyl}ethanesulfonamide] | 36 | 2.8 | 57 | 
7 | CCS(=O)(=O)Nc1ccc(OC2CCOCC2)c(-c2cn(C)c3c(=O)[nH]ccc23)c1 [Example 7, N-[3-(1-methyl-7-oxo-6,7-dihydro-1H-pyrrolo[2,3-c]pyridin-3-yl)-4-(tetrahydro-2H-pyran-4-yloxy)phenyl]ethanesulfonamide] | 93 | 4 | 16 | 
8 | CCS(=O)(=O)Nc1ccc(OC2CCC(F)(F)CC2)c(-c2cn(C)c3c(=O)[nH]ccc23)c1 [Example 8, N-{4[(4,4-difluorocyclohexyl)oxy]-3-(1-methyl-7-oxo-6,7-dihydro-1H-pyrrolo[2,3-c]pyridin-3-yl)phenyl}ethanesulfonamide] | 33 | 1.6 | 6.4 | 
9 | CCS(=O)(=O)Nc1ccc(O[C@H]2CC[C@@H](OC)CC2)c(-c2cn(C)c3c(=O)[nH]ccc23)c1 [Example 9, N-{4-[(cis-4-methoxycyclohexyl)oxy]-3-(1-methyl-7-oxo-6,7-dihydro-1H-pyrrolo[2,3-c]pyridin-3-yl)phenyl}ethanesulfonamide] | 128 | 12 | 29 | 
10 | CCS(=O)(=O)Nc1ccc(OC2COC2)c(-c2cn(C)c3c(=O)[nH]ccc23)c1 [Example 10, N-[3-(1-methyl-7-oxo-6,7-dihydro-1H-pyrrolo[2,3-c]pyridin-3-yl)-4-(oxetan-3-yloxy)phenyl]ethanesulfonamide] | 225 | 18 | 142 | 
11 | Cn1cc(-c2cc(NS(C)(=O)=O)c(Oc3ccc(F)cc3F)cc2Oc2ccc(F)cc2F)c2cc[nH]c(=O)c21 [Example 13, N-[2,4-bis(2,4-difluorophenoxy)-5-(1-methyl-7-oxo-6,7-dihydro-1H-pyrrolo[2,3-c]pyridin-3-yl)phenyl]methanesulfonamide] | 136 | 173 | 213 | 
12 | COC(=O)/C=C/N(c1ccc(F)cc1)c1ccc(CS(C)(=O)=O)cc1-c1cn(C)c2c(=O)[nH]ccc12 [Example 166, methyl (2E)-3-[(4-fluorophenyl) {2-(1-methyl-7-oxo-6,7-dihydro-1H-pyrrolo[2,3-c]pyridin-3-yl)-4-[(methylsulfonyl)methyl]phenyl}amino]prop-2-enoate] |  | 109 | 47 | 
13 | COc1ccc(Oc2cccc(CNc3ccc(Oc4ccc(F)cc4F)c(-c4cn(C)c5c(=O)[nH]ccc45)c3)c2)cc1 [Example 168, 3-[2-(2,4-difluorophenoxy)-5-{[3-(4-methoxyphenoxy)benzyl]amino}phenyl]-1-methyl-1,6-dihydro-7H-pyrrolo[2,3-c]pyridin-7-one] |  | 386 | 1200 | 
14 | Cn1cc(-c2cc(NCc3cccc(C#N)c3)ccc2Oc2ccc(F)cc2F)c2cc[nH]c(=O)c21 [Example 172, 3-({[4-(2,4-difluorophenoxy)-3-(1-methyl-7-oxo-6,7-dihydro-1H-pyrrolo[2,3-c]pyridin-3-yl)phenyl]amino}methyl)benzonitrile] |  | 71 | 226 | 
15 | Cn1cc(-c2cc(NCc3ccc(Oc4ccccc4)cc3)ccc2Oc2ccc(F)cc2F)c2cc[nH]c(=O)c21 [Example 173, 3-{2-(2,4-difluorophenoxy)-5[(4-phenoxybenzyl)amino]phenyl}-1-methyl-1,6-dihydro-7H-pyrrolo[2,3-c]pyridin-7-one] |  | 214 | 781 | 
16 | Cn1cc(-c2cc(NCCC(C)(C)C)ccc2Oc2ccc(F)cc2F)c2cc[nH]c(=O)c21 [Example 174, 3-{2-(2,4-difluorophenoxy)-5-[(3,3-dimethylbutyl)amino]phenyl}-1-methyl-1,6-dihydro-7H-pyrrolo[2,3-c]pyridin-7-one] |  | 57.5 | 215 | 
17 | Cn1cc(-c2cc(NCc3c(F)cccc3F)ccc2Oc2ccc(F)cc2F)c2cc[nH]c(=O)c21 [Example 175, 3-{5-[(2,6-difluorobenzyl)amino]-2-(2,4-difluorophenoxy)phenyl}-1-methyl-1,6-dihydro-7H-pyrrolo[2,3-c]pyridin-7-one] |  | 69.1 | 285 | 
18 | Cn1cc(-c2cc(NCc3ccnc4ccccc34)ccc2Oc2ccc(F)cc2F)c2cc[nH]c(=O)c21 [Example 179, 3-{2-(2,4-difluorophenoxy)-5-[(quinolin-4-ylmethyl)amino]phenyl}-1-methyl-1,6-dihydro-7H-pyrrolo[2,3-c]pyridin-7-one] |  | 69.9 | 231 | 
19 | CCS(=O)(=O)Nc1ccc(Oc2ccc(F)cc2F)c(-c2cn(C)c3c(=O)[nH]c(CN4CCOCC4)cc23)c1 [Example 182, N-{4-(2,4-difluorophenoxy)-3-[1-methyl-5-(morpholin-4-ylmethyl)-7-oxo-6,7-dihydro-1H-pyrrolo[2,3-c]pyridin-3-yl]phenyl}ethanesulfonamide] |  | 29.2 | 99.9 | 
20 | CCS(=O)(=O)Nc1ccc(Oc2ccc(F)cc2F)c(-c2cn(C)c3c(=O)[nH]c(C(=O)N4CCOCC4)cc23)c1 [Example 191, N-{4-(2,4-difluorophenoxy)-3-[1-methyl-5-(morpholin-4-ylcarbonyl)-7-oxo-6,7-dihydro-1H-pyrrolo[2,3-c]pyridin-3-yl]phenyl}ethanesulfonamide] |  | 7.63 | 54.6 | 
21 | CCS(=O)(=O)Nc1ccc(Oc2ccc(F)cc2F)c(-c2cn(C)c3c(=O)[nH]c(C(=O)N4CCC(O)CC4)cc23)c1 [Example 194, N-[4-(2,4-difluorophenoxy)-3-{5-[(4-hydroxypiperidin-1-yl)carbonyl]-1-methyl-7-oxo-6,7-dihydro-1H-pyrrolo[2,3-c]pyridin-3-yl]phenyl}ethanesulfonamide] |  | 10.5 | 68.5 | 
22 | CCS(=O)(=O)Nc1ccc(Oc2ccc(F)cc2F)c(-c2cn(C)c3c(=O)[nH]c(C(=O)NCCN4CCCCC4)cc23)c1 [Example 198, 3-{2-(2,4-difluorophenoxy)-5-[(ethylsulfonyl)amino]phenyl}-1-methyl-7-oxo-N-[2-(piperidin-1-yl)ethyl]-6,7-dihydro-1H-pyrrolo[2,3-c]pyridine-5-carboxamide] |  | 3.18 | 10.9 | 
23 | CCS(=O)(=O)Nc1ccc(Oc2ccc(F)cc2F)c(-c2cn(C)c3c(=O)[nH]c(C(=O)NCc4ccoc4)cc23)c1 [Example 201, 3-{2-(2,4-difluorophenoxy)-5-[(ethylsulfonyl)amino]phenyl}-N-(furan-3-ylmethyl)-1-methyl-7-oxo-6,7-dihydro-1H-pyrrolo[2,3-c]pyridine-5-carboxamide] |  | 3.47 | 11.4 | 
